Data from the supplement of paper PMC10307832.

Legend:
Test in all cases: relative viability (nuclei count vs DMSO), 5 days (fraction); higher = more cells survive
201T = tested on: 201T
Method in brief: (§1)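 Values are medians from duplicate plates. Each reflects relative viability, defined as the nuclei count of treated wells over that of vehicle wells. Lung cancer cell lines in 1536-well plates were pin-tool dosed one day after seeding with one drug alone or with a fixed anchor-drug dose plus five library-drug doses (not always all listed) in √10 steps, then fixed, stained and imaged at 4× after 5 days.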

A-427 = tested on: A-427
Method in brief: as §1

COR-L23 = tested on: COR-L23
Method in brief: as §1

H3255 = tested on: H3255
Method in brief: as §1

LCLC-103H = tested on: LCLC-103H
Method in brief: as §1

LCLC-97TM1 = tested on: LCLC-97TM1
Method in brief: as §1

LK-2 = tested on: LK-2
Method in brief: as §1

LU99A = tested on: LU99A
Method in brief: as §1

NCI-H1650 = tested on: NCI-H1650
Method in brief: as §1

NCI-H1651 = tested on: NCI-H1651
Method in brief: as §1

NCI-H1793 = tested on: NCI-H1793
Method in brief: as §1

NCI-H1944 = tested on: NCI-H1944
Method in brief: as §1

With COc1cc(N2CCC(C(N)=O)CC2)ccc1Nc1nc(N)c(Cl)c(Nc2ccccc2S(=O)(=O)C(C)C)n1 [HG-5-88-01] + CC(=O)c1c(C)c2cnc(Nc3ccc(N4CCNCC4)cn3)nc2n(C2CCCC2)c1=O [Palbociclib] (partner 0.5 µM) the relative viability (201T; first compound 0.04 µM) was 0.368, the relative viability (201T; first compound 0.1265 µM) was 0.343 and the relative viability (201T; first compound 1.265 µM) was 0.347. The relative viability (201T; first compound 4 µM) was 0.36, the relative viability (A-427; first compound 0.04 µM) was 0.536 and the relative viability (A-427; first compound 0.1265 µM) was 0.541. For the same molecule, the relative viability (A-427; first compound 0.4 µM) was 0.541, the relative viability (A-427; first compound 1.265 µM) was 0.517 and the relative viability (A-427; first compound 4 µM) was 0.463. For the same molecule, the relative viability (COR-L23; first compound 0.04 µM) was 0.383, the relative viability (COR-L23; first compound 0.1265 µM) was 0.225 and the relative viability (COR-L23; first compound 0.4 µM) was 0.266. The relative viability (COR-L23; first compound 1.265 µM) was 0.235, the relative viability (COR-L23; first compound 4 µM) was 0.26 and the relative viability (H3255; first compound 0.04 µM) was 0.291. It also gave a relative viability (H3255; first compound 0.1265 µM) of 0.312, a relative viability (H3255; first compound 0.4 µM) of 0.309 and a relative viability (H3255; first compound 4 µM) of 0.277. The relative viability (LCLC-103H; first compound 0.04 µM) was 0.48, the relative viability (LCLC-103H; first compound 0.1265 µM) was 0.48 and the relative viability (LCLC-103H; first compound 0.4 µM) was 0.443. For the same molecule, the relative viability (LCLC-103H; first compound 1.265 µM) was 0.504, the relative viability (LCLC-103H; first compound 4 µM) was 0.445 and the relative viability (LCLC-97TM1; first compound 0.04 µM) was 0.214. For the same molecule, the relative viability (LCLC-97TM1; first compound 0.1265 µM) was 0.198, the relative viability (LCLC-97TM1; first compound 0.4 µM) was 0.197 and the relative viability (LCLC-97TM1; first compound 1.265 µM) was 0.194. It also gave a relative viability (LCLC-97TM1; first compound 4 µM) of 0.118, a relative viability (LK-2; first compound 0.04 µM) of 0.772 and a relative viability (LK-2; first compound 0.1265 µM) of 0.582. For the same molecule, the relative viability (LK-2; first compound 0.4 µM) was 0.71, the relative viability (LK-2; first compound 4 µM) was 0.519 and the relative viability (LU99A; first compound 0.04 µM) was 0.434. It also gave a relative viability (LU99A; first compound 0.1265 µM) of 0.39, a relative viability (LU99A; first compound 0.4 µM) of 0.384 and a relative viability (LU99A; first compound 1.265 µM) of 0.32. It also gave a relative viability (LU99A; first compound 4 µM) of 0.305, a relative viability (NCI-H1650; first compound 0.04 µM) of 0.342 and a relative viability (NCI-H1650; first compound 0.1265 µM) of 0.391. For the same molecule, the relative viability (NCI-H1650; first compound 0.4 µM) was 0.327, the relative viability (NCI-H1650; first compound 1.265 µM) was 0.298 and the relative viability (NCI-H1650; first compound 4 µM) was 0.223. It also gave a relative viability (NCI-H1651; first compound 0.04 µM) of 0.571, a relative viability (NCI-H1651; first compound 0.1265 µM) of 0.51 and a relative viability (NCI-H1651; first compound 0.4 µM) of 0.517. The relative viability (NCI-H1651; first compound 1.265 µM) was 0.458, the relative viability (NCI-H1651; first compound 4 µM) was 0.616 and the relative viability (NCI-H1793; first compound 0.04 µM) was 0.301. The relative viability (NCI-H1793; first compound 0.1265 µM) was 0.309, the relative viability (NCI-H1793; first compound 0.4 µM) was 0.299 and the relative viability (NCI-H1793; first compound 1.265 µM) was 0.24. The relative viability (NCI-H1793; first compound 4 µM) was 0.33, the relative viability (NCI-H1944; first compound 0.04 µM) was 0.37 and the relative viability (NCI-H1944; first compound 0.1265 µM) was 0.351. The relative viability (NCI-H1944; first compound 0.4 µM) was 0.36.
